Results on 20 molecules are retold here after patent US10550100B2, “5-[3-[piperzin-1-yl]-3-oxo-propyl]-imidazolidine-2,4-dione derivatives as ADAMTS 4 and 5 inhibitors for treating E.G. osteoarthritis” (GALAPAGOS NV, priority 2016, dated 2020).

Molecules are shown by their SMILES. Where two headings read alike, the source gives them in different places.

Format in all cases: biochemical
Assay [1] deals with human ADAMTS-5 (Homo sapiens (Human), UniProt Q9UNA0). Kind of assay: hADAMTS-5 TBIS-1 cleavage assay, Protocol 3. Particulars: Protocol 3, TBIS-1 substrate, 90 min at 37° C.; read-out: hADAMTS-5 potency IC50. The procedure: The reaction is initiated by adding to the assay plate TBIS-1 (10 μL, 4.5 μM, Anaspec) in the same buffer.
Finally, the fluorescence is read on the Envision (Perkin Elmer) after an incubation of 90 min at 37° C. (Excitation 485 nm, emission 530).

Assay [2] deals with human ADAMTS6 (Homo sapiens (Human), UniProt Q9UKP5). Put plainly: hADAMTS-6 520 MMP FRET substrate XII cleavage assay. Conditions: 37° C. for 2 h, read-out: hADAMTS-6 potency IC50. The text has this: The IC50 value for test compounds can be determined in a fluorescent based protease assay.
The basis for the assay is the cleavage of the substrate 520 MMP FRET substrate XII by human ADAMTS6.
The substrate contains sequence Arg-Pro-Lys-Pro-Tyr-Ala-Nva-Trp-Met-Lys (SEQ ID NO: 7) with attached a fluorescent probe and a quencher. Without ADAMTS6, the emission of the probe is quenched. If the substrate is cleaved by ADAMTS6, the emission of the probe is not quenched anymore. Inhibition of ADAMTS6 activity, will result in a decrease of the signal.
To perform the assay, 4 μL of a dilution series of compound in water, starting from 20 μM highest concentration, 1/5 dilution, is added to the wells. 2 ng ADAMTS6 enzyme is diluted in 25 mM Tris pH8.0, 0.05% CHAPS, 2.5 mM CaCl2 in a total volume of 26 μL (final concentration 0.73 nM). The reaction is started by addition of 10 μL of 1 μM 520 MMP FRET Substrate XII (final concentration, diluted in same buffer as described above) and the mixture is incubated at 37° C. for 2 h. […] After this incubation, cleavage of the substrate is measured using the Envision (Perkin Elmer, exc485/em530).

For assay [3], the target named is human TACE (Homo sapiens (Human), UniProt P78536). Put plainly: hTACE 5FAM-[…]-5TAMRA cleavage assay. Particulars: 75 min at room temperature, read-out: hTACE potency IC50. Here is the method:
Finally, the fluorescence is read on the Envision (Perkin Elmer) after an incubation of 75 min at room temperature (Excitation 485 nm, Emission 530).

The target of assay [4] is human MMP13 (Homo sapiens (Human), UniProt P45452). Put plainly: hMMP13 390 MMP FRET Substrate I cleavage assay, Protocol 1. Particulars: Protocol 1, 390 MMP FRET Substrate I; read-out: hMMP-13 potency IC50. Here is the method: The basis for the assay is the cleavage of the substrate 390 MMP FRET Substrate I (Anaspec Cat# AS-27076) by human MMP13 (Chemicon, Cat#CC068).
Human MMP13 is preactivated by incubated the enzyme in the same buffer complemented with 1 mM freshly prepared p-Aminophenylmercuric acetate (AMPA) for 1 h at 37° C.
(§1) The reaction is initiated by adding to the assay plate 390 MMP FRET Substrate I (10 μL, 2.5 μM) in the same buffer.
Finally, the fluorescence is read on the Envision (Perkin Elmer) after an incubation of 45 min at room temperature (Excitation 485 nm, Emission 530).

Assay [5] deals with human MMP14 (Homo sapiens (Human), UniProt P50281). Put plainly: hMMP14 390 MMP FRET Substrate I cleavage assay. Conditions: 60 min at room temperature, read-out: hMMP-14 potency IC50. Here is the method:
The basis for the assay is the cleavage of the substrate 390 MMP FRET Substrate I (Anaspec Cat# AS-27076) by human MMP14 (Biomol, Cat#SE-259).
as §1
Finally, the fluorescence is read on the Envision (Perkin Elmer) after an incubation of 60 min at room temperature (Excitation 485 nm, Emission 530).

Chain of human ADAMTS-5 (Q9UNA0 262-930): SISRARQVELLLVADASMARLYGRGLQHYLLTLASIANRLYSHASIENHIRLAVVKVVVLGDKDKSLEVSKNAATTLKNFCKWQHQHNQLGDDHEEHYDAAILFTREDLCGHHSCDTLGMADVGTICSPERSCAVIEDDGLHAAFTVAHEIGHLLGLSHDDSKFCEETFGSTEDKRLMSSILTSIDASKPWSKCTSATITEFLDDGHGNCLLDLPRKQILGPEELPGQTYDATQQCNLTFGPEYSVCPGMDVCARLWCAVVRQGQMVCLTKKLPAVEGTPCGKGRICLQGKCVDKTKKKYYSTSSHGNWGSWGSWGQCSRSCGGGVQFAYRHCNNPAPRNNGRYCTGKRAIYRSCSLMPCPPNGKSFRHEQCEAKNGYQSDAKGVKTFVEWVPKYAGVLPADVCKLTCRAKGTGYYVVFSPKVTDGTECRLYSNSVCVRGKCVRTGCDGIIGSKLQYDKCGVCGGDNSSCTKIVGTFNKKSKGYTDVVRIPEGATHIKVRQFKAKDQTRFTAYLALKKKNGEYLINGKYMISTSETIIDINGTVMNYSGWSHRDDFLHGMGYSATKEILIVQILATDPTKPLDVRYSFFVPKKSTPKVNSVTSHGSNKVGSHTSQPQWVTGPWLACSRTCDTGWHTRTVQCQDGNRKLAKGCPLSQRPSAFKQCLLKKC
Chain of human TACE (P78536 215-671): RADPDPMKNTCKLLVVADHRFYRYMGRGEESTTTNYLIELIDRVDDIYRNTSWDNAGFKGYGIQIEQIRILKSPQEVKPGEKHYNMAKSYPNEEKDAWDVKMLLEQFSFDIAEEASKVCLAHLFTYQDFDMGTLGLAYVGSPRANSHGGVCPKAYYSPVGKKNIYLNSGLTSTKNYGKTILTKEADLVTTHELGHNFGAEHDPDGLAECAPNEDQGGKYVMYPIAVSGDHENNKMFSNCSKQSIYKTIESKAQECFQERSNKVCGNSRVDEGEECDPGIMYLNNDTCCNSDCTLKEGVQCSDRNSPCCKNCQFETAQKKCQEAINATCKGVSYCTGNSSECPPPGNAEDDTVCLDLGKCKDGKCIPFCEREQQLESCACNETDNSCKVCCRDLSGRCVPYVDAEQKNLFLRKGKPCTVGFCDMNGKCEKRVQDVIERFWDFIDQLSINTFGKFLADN
Chain of human ADAMTS6 (Q9UKP5 other isoform, or with tags, fused parts or gaps): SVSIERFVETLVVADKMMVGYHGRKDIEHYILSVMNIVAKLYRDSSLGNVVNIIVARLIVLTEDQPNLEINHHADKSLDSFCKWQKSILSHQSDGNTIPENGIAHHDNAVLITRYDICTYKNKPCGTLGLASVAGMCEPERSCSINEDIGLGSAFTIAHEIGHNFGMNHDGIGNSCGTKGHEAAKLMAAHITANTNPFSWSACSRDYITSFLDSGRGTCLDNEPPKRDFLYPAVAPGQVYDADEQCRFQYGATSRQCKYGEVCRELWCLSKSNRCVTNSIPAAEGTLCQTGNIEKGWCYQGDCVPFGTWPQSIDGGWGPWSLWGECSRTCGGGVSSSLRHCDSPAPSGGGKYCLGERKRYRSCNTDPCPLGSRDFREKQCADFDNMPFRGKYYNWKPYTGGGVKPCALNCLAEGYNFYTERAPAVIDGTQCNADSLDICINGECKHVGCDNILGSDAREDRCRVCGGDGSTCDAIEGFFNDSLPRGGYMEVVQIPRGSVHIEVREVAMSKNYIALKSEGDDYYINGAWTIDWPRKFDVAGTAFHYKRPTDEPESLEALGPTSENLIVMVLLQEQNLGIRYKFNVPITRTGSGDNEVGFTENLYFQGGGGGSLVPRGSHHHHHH

In general, IC50 refers to the concentration that inhibits the measured activity by half. `COc1cc(C2CCN(C(=O)CC[C@H]3NC(=O)NC3=O)CC2)ccc1Cl` [Cpd 32, (R)-5-(3-(4-(4-chloro-3-methoxyphenyl)piperidin-1-yl)-3-oxopropyl) imidazolidine-2,4-dione]: the IC50 in assay [1] was greater than 100 nM; in assay [2], 25 to 50 nM; in assay [3] (5FAM-LAQAVRSSSRK-5TAMRA) it was greater than 100 nM; in assay [4], greater than 100 nM.
Consider `COc1cc(C2CCN(C(=O)CC[C@H]3NC(=O)NC3=O)CC2)c(C)cc1Cl` [Cpd 33, (R)-5-(3-(4-(4-chloro-5-methoxy-2-methylphenyl)piperidin-1-yl)-3-oxopropyl) imidazolidine-2,4-dione], for which the 50% inhibitory concentration (IC50) was greater than 100 nM in assay [1], 25 to 50 nM in assay [2], greater than 100 nM in assay [3] (5FAM-LAQAVRSSSRK-5TAMRA) and greater than 100 nM in assay [4].
`COc1cc(OC)cc(C2CCN(C(=O)CC[C@H]3NC(=O)NC3=O)CC2)c1` [Cpd 34, (R)-5-(3-(4-(3,5-dimethoxy-phenyl)piperidin-1-yl)-3-oxopropyl) imidazolidine-2,4-dione]: the half-maximal inhibitory concentration (IC50) was greater than 100 nM in assay [1], 50 to 100 nM in assay [2], greater than 100 nM in assay [3] (5FAM-LAQAVRSSSRK-5TAMRA) and greater than 100 nM in assay [4].
Turning to `COc1cc(C2CCN(C(=O)CCC3(C)NC(=O)NC3=O)CC2)ccc1Cl` (stereo not shown) [Cpd 36, 5-(3-(4-(4-chloro-3-methoxyl-phenyl)piperidin-1-yl)-3-oxopropyl)-5-methyl-imidazolidine-2,4-dione], the figures for the IC50 in assay [2], in assay [3] (5FAM-LAQAVRSSSRK-5TAMRA) and in assay [4] were 0.001 to 25 nM, greater than 100 nM and greater than 100 nM, respectively.
In the case of `COc1cc(OC)cc(C2CCN(C(=O)CCC3(C)NC(=O)NC3=O)CC2)c1` (stereo not shown) [Cpd 38, 5-(3-(4-(3,5-dimethoxy-phenyl)piperidin-1-yl)-3-oxopropyl)-5-methyl-imidazolidine-2,4-dione], the concentration for half-maximal inhibition (IC50) in assay [1] is greater than 100 nM; in assay [2] it was 25 to 50 nM; in assay [3] (5FAM-LAQAVRSSSRK-5TAMRA) it was greater than 100 nM; in assay [4] it was greater than 100 nM.
For `COc1ccc(Cl)cc1C1CCN(C(=O)CCC2(C)NC(=O)NC2=O)CC1` (stereo not shown) [Cpd 41, 5-(3-(4-(5-chloro-2-methoxy-phenyl)piperidin-1-yl)-3-oxopropyl)-5-methyl-imidazolidine-2,4-dione], the half-inhibitory concentration (IC50) in assay [1] and in assay [4] was greater than 100 nM in each case.
With `COc1cc(Cl)ccc1C1CCN(C(=O)CC[C@H]2NC(=O)NC2=O)CC1` [Cpd 42, (R)-5-(3-(4-(4-chloro-2-methoxy-phenyl)piperidin-1-yl)-3-oxopropyl) imidazolidine-2,4-dione], the IC50 in assay [1] was greater than 100 nM; in assay [2] it was 25 to 50 nM; in assay [3] (5FAM-LAQAVRSSSRK-5TAMRA) it was greater than 100 nM; in assay [4], greater than 100 nM; in assay [5], greater than 100 nM.
Regarding `COc1cc(C2CCN(C(=O)CC[C@H]3NC(=O)NC3=O)CC2)cc(F)c1F` [Cpd 43, (R)-5-(3-(4-(3,4-difluoro-5-methoxy-phenyl)piperidin-1-yl)-3-oxopropyl) imidazolidine-2,4-dione], the half-inhibitory concentration (IC50) in assay [1] was greater than 100 nM; in assay [2], 25 to 50 nM; in assay [3] (5FAM-LAQAVRSSSRK-5TAMRA), greater than 100 nM; in assay [4], greater than 100 nM.
For the molecule `COc1cc(C2CCN(C(=O)CCC3(C)NC(=O)NC3=O)CC2)cc(F)c1F` (stereo not shown) [Cpd 45, 5-(3-(4-(3,4-difluoro-5-methoxyphenyl)piperidin-1-yl)-3-oxopropyl)-5-methyl-imidazolidine-2,4-dione], the IC50 in assay [1] was greater than 100 nM; in assay [2], 0.001 to 25 nM; in assay [3] (5FAM-LAQAVRSSSRK-5TAMRA), greater than 100 nM; in assay [4], greater than 100 nM.
In the case of `COc1cc(C2CCN(C(=O)CC[C@H]3NC(=O)NC3=O)CC2)cc(F)c1Cl` [Cpd 46, (R)-5-(3-(4-(4-chloro-3-fluoro-5-methoxyphenyl)piperidin-1-yl)-3-oxopropyl) imidazolidine-2,4-dione], the IC50 in assay [1] was 50 to 100 nM; in assay [2], 0.001 to 25 nM; in assay [3] (5FAM-LAQAVRSSSRK-5TAMRA), greater than 100 nM; in assay [4] it was greater than 100 nM.
As for `COc1cc(C2CCN(C(=O)CCC3(C)NC(=O)NC3=O)CC2)cc(F)c1Cl` (stereo not shown) [Cpd 47, 5-(3-(4-(4-chloro-3-fluoro-5-methoxyphenyl)piperidin-1-yl)-3-oxopropyl)-5-methyl-imidazolidine-2,4-dione], the IC50 is 0.001 to 25 nM in assay [2], greater than 100 nM in assay [3] (5FAM-LAQAVRSSSRK-5TAMRA) and greater than 100 nM in assay [4].
In the case of `Cc1c(Cl)cc(Cl)cc1C1CCN(C(=O)CC[C@H]2NC(=O)NC2=O)CC1` [Cpd 48, (R)-5-(3-(4-(3,5-dichloro-2-methylphenyl)piperidin-1-yl)-3-oxopropyl) imidazolidine-2,4-dione], the half-maximal inhibitory concentration (IC50) in assay [1] is greater than 100 nM; in assay [2], 50 to 100 nM; in assay [3] (5FAM-LAQAVRSSSRK-5TAMRA), greater than 100 nM; in assay [4], greater than 100 nM.
On to `Cc1c(Cl)cc(Cl)cc1C1CCN(C(=O)CCC2(C)NC(=O)NC2=O)CC1` (stereo not shown) [Cpd 49, 5-(3-(4-(3,5-dichloro-2-methylphenyl)piperidin-1-yl)-3-oxopropyl)-5-methyl-imidazolidine-2,4-dione], for which the IC50 in assay [1] is greater than 100 nM; in assay [2], 25 to 50 nM; in assay [3] (5FAM-LAQAVRSSSRK-5TAMRA), greater than 100 nM; in assay [4], greater than 100 nM.
As to `COc1cc(F)cc(C2CCN(C(=O)CCC3(C)NC(=O)NC3=O)CC2)c1` (stereo not shown) [Cpd 50, 5-(3-(4-(3-fluoro-5-methoxyphenyl)piperidin-1-yl)-3-oxopropyl)-5-methyl-imidazolidine-2,4-dione], the half-inhibitory concentration (IC50) in assay [1] was greater than 100 nM; in assay [2], 50 to 100 nM; in assay [3] (5FAM-LAQAVRSSSRK-5TAMRA), greater than 100 nM; in assay [4] it was greater than 100 nM.
Regarding `Cc1ccccc1C1CCN(C(=O)CCC2(C)NC(=O)NC2=O)CC1` (stereo not shown) [Cpd 57, 5-methyl-5-(3-oxo-3-(4-o-tolylpiperidin-1-yl)propyl) imidazolidine-2,4-dione], the IC50 in assay [1], in assay [2], in assay [3] (5FAM-LAQAVRSSSRK-5TAMRA) and in assay [4] was greater than 100 nM in each case.
On to `Cc1ccccc1C1CCN(C(=O)CC[C@H]2NC(=O)NC2=O)CC1` [Cpd 58, (R)-5-(3-oxo-3-(4-o-tolylpiperidin-1-yl)propyl) imidazolidine-2,4-dione], for which the IC50 in assay [1], in assay [2], in assay [3] (5FAM-LAQAVRSSSRK-5TAMRA) and in assay [4] was greater than 100 nM each time.
For the molecule `C[C@H]1CN(C(=O)CCC2(C3CC3)NC(=O)NC2=O)CC[C@H]1c1ccc(F)c(F)c1` (stereo partly drawn) [Cpd 76, 5-cyclopropyl-5-(3-((3R,4R)-4-(3,4-difluorophenyl)-3-methylpiperidin-1-yl)-3-oxopropyl) imidazolidine-2,4-dione], the results for the IC50 in assay [1], in assay [2] and in assay [3] (5FAM-LAQAVRSSSRK-5TAMRA) were 50 to 100 nM, 50 to 100 nM and greater than 100 nM, respectively.
For `C[C@H]1CN(C(=O)CC[C@@]2(C3CC3)NC(=O)NC2=O)CC[C@@H]1c1ccc(F)c(F)c1` [Cpd 77, (S)-5-cyclopropyl-5-(3-((3R,4S)-4-(3,4-difluorophenyl)-3-methylpiperidin-1-yl)-3-oxopropyl) imidazolidine-2,4-dione], the concentration for half-maximal inhibition (IC50) in assay [1], in assay [2] and in assay [3] (5FAM-LAQAVRSSSRK-5TAMRA) was greater than 100 nM throughout.
Regarding `C[C@H]1CN(C(=O)CC[C@@]2(C3CC3)NC(=O)NC2=O)CC[C@H]1c1ccc(F)c(F)c1` [Cpd 78, (S)-5-cyclopropyl-5-(3-((3R,4R)-4-(3,4-difluorophenyl)-3-methylpiperidin-1-yl)-3-oxopropyl) imidazolidine-2,4-dione], the 50% inhibitory concentration (IC50) in assay [1] was 25 to 50 nM; in assay [2] it was 25 to 50 nM; in assay [3] (5FAM-LAQAVRSSSRK-5TAMRA), greater than 100 nM.
Consider `CCOc1cc(C2CCN(C(=O)CC[C@H]3NC(=O)NC3=O)CC2)cc(OC)c1Cl` [Cpd 88, (5R)-5-[3-[4-(4-chloro-3-ethoxy-5-methoxy-phenyl)-1-piperidyl]-3-oxo-propyl] imidaz olidine-2,4-dione], for which the 50% inhibitory concentration (IC50) in assay [1] was greater than 100 nM; in assay [2], 0.001 to 25 nM; in assay [3] (5FAM-[…]-5TAMRA), 50 to 100 nM.
